Structures are written as SMILES. Some results are limits rather than exact numbers.

Test [1] deals with T1, full length GRK5 (Homo sapiens, UniProt P34947).
T1 construct: 6/2 fold concentrated full length GRK5 (Millipore, #14-714) in reaction buffer is added to each well; purchased Millipore 14-714
Nature of the test: IC50 determination of compounds inhibiting GRK5 by ADP Glo Kinase Assay technology (Promega). The format is biochemical. To be noted: 20 nM GRK5, 18.7 µM ATP, 10 µM casein, 12 concentrations, triplicates, read-out: GRK5 IC50. For orientation: In ADP-Glo the light output rises with the ADP produced.

The target in test [2] is T2, GRK5 (Homo sapiens, UniProt P34947).
T2 construct: purchased Millipore
T2 sequence (P34947 whole entry): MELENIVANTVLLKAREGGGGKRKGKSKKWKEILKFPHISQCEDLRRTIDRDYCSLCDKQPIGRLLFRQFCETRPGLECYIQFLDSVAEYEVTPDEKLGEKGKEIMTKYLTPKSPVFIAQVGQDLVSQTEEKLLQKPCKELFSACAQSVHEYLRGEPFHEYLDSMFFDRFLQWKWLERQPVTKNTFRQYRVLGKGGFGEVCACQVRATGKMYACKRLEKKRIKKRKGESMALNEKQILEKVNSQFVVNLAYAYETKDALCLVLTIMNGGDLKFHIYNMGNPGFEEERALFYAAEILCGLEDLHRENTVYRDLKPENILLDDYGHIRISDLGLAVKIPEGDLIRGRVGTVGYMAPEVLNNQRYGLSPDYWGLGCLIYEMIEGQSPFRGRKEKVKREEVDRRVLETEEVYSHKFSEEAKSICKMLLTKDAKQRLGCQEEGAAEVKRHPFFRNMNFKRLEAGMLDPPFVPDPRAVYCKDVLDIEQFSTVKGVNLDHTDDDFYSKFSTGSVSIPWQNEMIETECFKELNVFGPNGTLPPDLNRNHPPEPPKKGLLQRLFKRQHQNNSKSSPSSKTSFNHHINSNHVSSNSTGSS
In words: IC50 determination of compounds inhibiting GRK5 by Millipore KinaseProfiler (radiometric filtration binding assay). The format is biochemical. The note with it: 2 mg/mL casein, 40 minutes at room temperature. Here is the method: IC50 values are determined by a radiometric based filtration binding assay, namely Millipore KinaseProfiler™. GRK5 is incubated with 8 mM MOPS pH 7.0, 0.2 mM EDTA, 2 mg/mL casein, 10 mM MgAcetate and […] (specific activity approx. 500 cpm/pmol, concentration as required). The reaction is initiated by the addition of the MgATP mix. After incubation for 40 minutes at room temperature, the reaction is stopped by the addition of 3 % phosphoric acid solution. 10 µL of the reaction is then spotted onto a P30 filtermat and washed three times for 5 minutes in 75 mM phosphoric acid and once in methanol prior to drying and scintillation counting.

T1 sequence (P34947 whole entry): as above

The term IC50 denotes the concentration needed to halve the response being measured. In the case of `CC[C@@H](NC(=O)c1ccc2c(c1)/C(=C/c1[nH]c(C)c(C(=O)N3CCN(C)CC3)c1C)C(=O)N2)c1ccccc1` [Compound 7, (3Z)-3-({3,5-dimethyl-4-[(4-methylpiperazin-1-yl)carbonyl]-1H-pyrrol-2-yl}methylene)-2-oxo-N-[(1R)-1-phenylpropyl]indoline-5-carboxamide], the IC50 in test [1] lay within 5 to 20 µM.
Same read-out and setting: the result for `C[C@@H](NC(=O)c1ccc2c(c1)/C(=C/Nc1ccc(CN3CCCCC3)cc1)C(=O)N2)c1cccc(Cl)c1` [Compound 80, (3Z)-N-[(1R)-1-(3-chlorophenyl)ethyl]-2-oxo-3-({[4-(piperidin-1-ylmethyl)phenyl]amino}methylene)indoline-5-carboxamide] reads < 5 µM.
In the case of `C[C@@H](c1ccccc1)N(C)C(=O)c1ccc2c(c1)/C(=C/Nc1ccc(CN3CCCCC3)cc1)C(=O)N2` [Compound 71, (3Z)-N-methyl-2-oxo-N-[(1S)-1-phenylethyl]-3-({[4-(piperidin-1-ylmethyl)phenyl]amino}methylene)indoline-5-carboxamide], the IC50 in test [1] and in test [2] was < 5 µM each time.
For the compound `CC[C@@H](NC(=O)c1ccc2c(c1)/C(=C/c1[nH]c(C)c(C(=O)N3CCCCC3)c1C)C(=O)N2)c1ccccc1` [Compound 63, (3Z)-3-{[3,5-dimethyl-4-(piperidin-1-ylcarbonyl)-1H-pyrrol-2-yl]methylene}-2-oxo-N-[(1R)-1-phenylpropyl]indoline-5-carboxamide], the concentration for half-maximal inhibition (IC50) in test [1] and in test [2] was < 5 µM each time.
For the compound `COc1ccc([C@H](C)NC(=O)c2ccc3c(c2)/C(=C/c2[nH]c(C)c(C(=O)N4CCCCC4)c2C)C(=O)N3)cc1` [Compound 65, (3Z)-3-{[3,5-dimethyl-4-(piperidin-1-ylcarbonyl)-1H-pyrrol-2-yl]methylene}-N-[(1S)-1-(4-methoxyphenyl)ethyl]-2-oxoindoline-5-carboxamide], the IC50 in test [1] is < 5 µM; in test [2], > 30 µM.
For `COc1ccc([C@@H](C)NC(=O)c2ccc3c(c2)/C(=C/c2[nH]c(C)c(C(=O)N4CCN(C)CC4)c2C)C(=O)N3)cc1` [Compound 21, (3Z)-3-({3,5-dimethyl-4-[(4-methylpiperazin-1-yl)carbonyl]-1H-pyrrol-2-yl}methylene)-N-[(1R)-1-(4-methoxyphenyl)ethyl]-2-oxoindoline-5-carboxamide], in test [1], the IC50 was < 5 µM.
For `Cc1[nH]c(/C=C2\C(=O)Nc3ccc(C(=O)N[C@@H](C)c4ccc(F)cc4)cc32)c(C)c1C(=O)N1CCCCC1` [Compound 64, (3Z)-3-{[3,5-dimethyl-4-(piperidin-1-ylcarbonyl)-1H-pyrrol-2-yl]methylene}-N-[(1S)-1-(4-fluorophenyl)ethyl]-2-oxoindoline-5-carboxamide], the IC50 in test [1] and in test [2] was > 30 µM throughout.
In the case of `CCC(NC(=O)c1ccc2c(c1)/C(=C/c1[nH]c(C)c(C(=O)NCCN3CCCC3)c1C)C(=O)N2)c1ccc(Cl)cc1` (centres unmarked) [Compound 13, (3Z)-N-[1-(4-chlorophenyl)propyl]-3-({3,5-dimethyl-4-[(2-pyrrolidin-1-ylethyl)carbamoyl]-1H-pyrrol-2-yl}methylene)-2-oxoindoline-5-carboxamide], in test [1], the IC50 was < 5 µM.
In the case of `CC[C@H](NC(=O)c1ccc2c(c1)/C(=C/c1[nH]c(C)c(C(=O)N3CCCCC3)c1C)C(=O)N2)c1ccccc1` [Compound 57, (3Z)-3-{[3,5-dimethyl-4-(piperidin-1-ylcarbonyl)-1H-pyrrol-2-yl]methylene}-2-oxo-N-[(1S)-1-phenylpropyl]indoline-5-carboxamide], the IC50 in test [1] and in test [2] was > 30 µM each time.
As for `CC[C@@H](NC(=O)c1ccc2c(c1)/C(=C/c1[nH]c(C)c(C(=O)N3CCC[C@@H]3CN3CCCC3)c1C)C(=O)N2)c1ccccc1` [Compound 48, (3Z)-3-[(3,5-dimethyl-4-{[(2R)-2-(pyrrolidin-1-ylmethyl)pyrrolidin-1-yl]carbonyl}-1H-pyrrol-2-yl)methylene]-2-oxo-N-[(1R)-1-phenylpropyl]indoline-5-carboxamide], the IC50 in test [1] and in test [2] was < 5 µM in each case.
For the compound `CC[C@@H](NC(=O)c1ccc2c(c1)/C(=C/Nc1ccc(CN3CCCCC3)cc1)C(=O)N2)c1ccccc1` [Compound 69, (3Z)-2-oxo-N-[(1R)-1-phenylpropyl]-3-({[4-(piperidin-1-ylmethyl)phenyl]amino}methylene)-indoline-5-carboxamide], the IC50 in test [1] is < 5 µM.
For the compound `Cc1[nH]c(/C=C2\C(=O)Nc3ccc(C(=O)N[C@@H](C)c4cccc(Cl)c4)cc32)c(C)c1C(=O)N1CCCCC1` [Compound 56, (3Z)-N-[(1S)-1-(3-chlorophenyl)ethyl]-3-{[3,5-dimethyl-4-(piperidin-1-ylcarbonyl)-1H-pyrrol-2-yl]methylene}-2-oxoindoline-5-carboxamide], the IC50 in test [1] and in test [2] was > 30 µM in each case.
Turning to `Cc1ccc([C@@H](C)NC(=O)c2ccc3c(c2)/C(=C/c2[nH]c(C)c(C(=O)N4CCN(C)CC4)c2C)C(=O)N3)cc1` [Compound 32, (3Z)-3-({3,5-dimethyl-4-[(4-methylpiperazin-1-yl)carbonyl]-1H-pyrrol-2-yl}methylene)-N-[(1R)-1-(4-methylphenyl)ethyl]-2-oxoindoline-5-carboxamide], in test [1], the IC50 was < 5 µM.
`CC[C@@H](NC(=O)c1ccc2c(c1)/C(=C/c1[nH]c(C)c(C(=O)NCCN3CCCC3)c1C)C(=O)N2)c1ccccc1` [Compound 6, (3Z)-3-({3,5-dimethyl-4-[(2-pyrrolidin-1-ylethyl)carbamoyl]-1H-pyrrol-2-yl}methylene)-2-oxo-N-[(1R)-1-phenylpropyl]indoline-5-carboxamide]: the IC50 in test [1] was < 5 µM.
For the compound `Cc1cccc(C(C)NC(=O)c2ccc3c(c2)/C(=C/c2[nH]c(C)c(C(=O)N4CCN(C)CC4)c2C)C(=O)N3)c1` (centres unmarked) [Compound 51, (3Z)-3-({3,5-dimethyl-4-[(4-methylpiperazin-1-yl)carbonyl]-1H-pyrrol-2-yl}methylene)-N-[1-(3-methylphenyl)ethyl]-2-oxoindoline-5-carboxamide], the half-inhibitory concentration (IC50) in test [1] lay within 5 to 20 µM.
The same measure, in the same setting: for `CCC(NC(=O)c1ccc2c(c1)/C(=C/c1[nH]c(C)c(C(=O)NCCN3CCCC3)c1C)C(=O)N2)c1cccc(Cl)c1` (centres unmarked) [Compound 11, (3Z)-N-[1-(3-chlorophenyl)propyl]-3-({3,5-dimethyl-4-[(2-pyrrolidin-1-ylethyl)carbamoyl]-1H-pyrrol-2-yl}methylene)-2-oxoindoline-5-carboxamide] the value was < 5 µM.
In the case of `Cc1[nH]c(/C=C2\C(=O)Nc3ccc(C(=O)N[C@H](C)c4ccc(Cl)cc4)cc32)c(C)c1C(=O)N1CCCC1` [Compound 67, (3Z)-N-[(1R)-1-(4-chlorophenyl)ethyl]-3-{[3,5-dimethyl-4-(pyrrolidin-1-ylcarbonyl)-1H-pyrrol-2-yl]methylene}-2-oxoindoline-5-carboxamide], the IC50 in test [1] was < 5 µM.
Same read-out and setting: the result for `Cc1[nH]c(/C=C2\C(=O)Nc3ccc(C(=O)O)cc32)c(C)c1C(=O)NCCN1CCCC1` [Compound 2] reads < 5 µM; that for `COc1cccc([C@@H](C)NC(=O)c2ccc3c(c2)/C(=C/Nc2ccc(CN4CCCCC4)cc2)C(=O)N3)c1` [Compound 79, (3Z)-N-[(1R)-1-(3-methoxyphenyl)ethyl]-2-oxo-3-({[4-(piperidin-1-ylmethyl)phenyl]amino}methylene)indoline-5-carboxamide], < 5 µM.
The same measure, in the same setting: for `Cc1[nH]c(/C=C2\C(=O)Nc3ccc(C(=O)N[C@H](C)c4ccccc4)cc32)c(C)c1C(=O)N1CCN(C)CC1` [Compound 15, (3Z)-3-({3,5-dimethyl-4-[(4-methylpiperazin-1-yl)carbonyl]-1H-pyrrol-2-yl}methylene)-2-oxo-N-[(1R)-1-phenylethyl]indoline-5-carboxamide] the value was < 5 µM.
Still for that read-out and setting: for `CCC(NC(=O)c1ccc2c(c1)/C(=C/c1[nH]c(C)c(C(=O)NCCN3CCCC3)c1C)C(=O)N2)c1ccc(F)c(F)c1` (centres unmarked) [Compound 10, (3Z)-N-[1-(3,4-difluorophenyl)propyl]-3-({3,5-dimethyl-4-[(2-pyrrolidin-1-ylethyl)carbamoyl]-1H-pyrrol-2-yl}methylene)-2-oxoindoline-5-carboxamide] the value was < 5 µM; for `Cc1[nH]c(/C=C2\C(=O)Nc3ccc(C(=O)N[C@H](C)c4ccccc4)cc32)c(C)c1C(=O)N1CCCCC1` [Compound 14, (3Z)-3-{[3,5-dimethyl-4-(piperidin-1-ylcarbonyl)-1H-pyrrol-2-yl]methylene}-2-oxo-N-[(1R)-1-phenylethyl]indoline-5-carboxamide], < 5 µM; for `C[C@@H](NC(=O)c1ccc2c(c1)/C(=C/Nc1ccc(CN3CCCCC3)cc1)C(=O)N2)c1ccccc1` [Compound 78, (3Z)-2-oxo-N-[(1R)-1-phenylethyl]-3-({[4-(piperidin-1-ylmethyl)phenyl]amino}methylene)indoline-5-carboxamide], < 5 µM.
Regarding `CC[C@@H](NC(=O)c1ccc2c(c1)/C(=C/c1[nH]c(C)c(C(=O)NCCN(CC)CC)c1C)C(=O)N2)c1ccccc1` [Compound 61, (3Z)-3-[(4-{[2-(diethylamino)ethyl]carbamoyl}-3,5-dimethyl-1H-pyrrol-2-yl)methylene]-2-oxo-N-[(1R)-1-phenylpropyl]indoline-5-carboxamide], in test [1], the IC50 is < 5 µM.
`Cc1[nH]c(/C=C2\C(=O)Nc3ccc(C(=O)N[C@H](C)c4ccccc4)cc32)c(C)c1C(=O)N1CCC[C@H]1CN1CCCC1` [Compound 16, (3Z)-3-[(3,5-dimethyl-4-{[(2S)-2-(pyrrolidin-1-ylmethyl)pyrrolidin-1-yl]carbonyl}-1H-pyrrol-2-yl)methylene]-2-oxo-N-[(1R)-1-phenylethyl]indoline-5-carboxamide]: the IC50 in test [2] is < 5 µM.
